Results as given in patent publication US8063071B2 (GlaxoSmithKline, LLC, priority 2007, dated 2011).
Counter-ions that a name gives are not always drawn.

Legend:
[1] = target: T1, Recombinant human IKKβ (residues 1-737) (Homo sapiens, UniProt O14920); experiment: IKK2 assay (TR-FRET); assay type: biochemical; settings: ATP 1 μM final, read-out: pIC50 against IKK2 (converted)
T1 construct: Recombinant human IKKβ (residues 1-737); GST (C); made in house
T1 sequence (O14920 1-737): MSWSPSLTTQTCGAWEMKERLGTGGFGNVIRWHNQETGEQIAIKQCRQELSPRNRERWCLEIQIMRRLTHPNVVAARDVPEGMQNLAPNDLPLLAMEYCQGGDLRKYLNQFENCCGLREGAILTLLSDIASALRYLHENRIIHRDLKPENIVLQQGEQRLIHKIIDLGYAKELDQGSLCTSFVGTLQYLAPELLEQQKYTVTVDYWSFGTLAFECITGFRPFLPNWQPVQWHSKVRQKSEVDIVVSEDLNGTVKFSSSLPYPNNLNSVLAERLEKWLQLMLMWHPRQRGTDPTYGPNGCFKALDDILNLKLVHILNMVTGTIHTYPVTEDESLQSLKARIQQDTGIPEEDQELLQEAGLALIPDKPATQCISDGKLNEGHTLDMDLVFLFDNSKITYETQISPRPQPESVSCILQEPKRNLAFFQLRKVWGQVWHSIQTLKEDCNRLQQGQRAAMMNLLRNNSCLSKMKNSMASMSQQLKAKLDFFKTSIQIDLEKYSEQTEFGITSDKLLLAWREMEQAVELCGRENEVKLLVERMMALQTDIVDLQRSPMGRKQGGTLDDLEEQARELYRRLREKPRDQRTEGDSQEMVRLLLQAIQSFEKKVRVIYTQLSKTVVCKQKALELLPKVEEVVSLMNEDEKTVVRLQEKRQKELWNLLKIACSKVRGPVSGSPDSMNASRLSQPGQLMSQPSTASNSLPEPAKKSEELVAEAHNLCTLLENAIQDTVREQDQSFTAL
Method in brief: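 TR-FRET readout (665 nm over 620 nm Eu reference) of GST-IB Ser32/36 phosphorylation after 60 min detection. Reaction: 1 μM ATP, 25 nM substrate, 0.5-5 nM GST-fused IKKβ 1-737 from baculovirus, pH 7.4 HEPES buffer, 1.7% DMSO, 15 min room temperature, EDTA-terminated.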

[2] = tested on: human monocyte stimulated cytokine production (TNF-α); experiment: Monocyte assay (LPS-stimulated TNF-α production); assay type: cell-based; settings: 24 h, 200 ng/mL LPS, TNF-α by ELISA
Method in brief: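 TNF-α release was measured by ELISA after 24 hrs at 37 C. Cells were stimulated with 200 ng/mL E. coli LPS, with compound added 30 minutes beforehand (0.1% DMSO vehicle). Cells were Ficoll/MACS-isolated CD14+ human monocytes adhered at 1×10^6 cells/mL, and viability was checked by trypan blue.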

SMILES | IC50 [1] [µM] | IC50 [2] [µM]
CCS(=O)(=O)N1CCC(c2c[nH]c3c(C(N)=O)cc(-c4coc(CNCC5CCCC5)c4)cc23)CC1 [Example 246, 5-(5-{[(cyclopentylmethyl)amino]methyl}-3-furanyl)-3-[1-(ethylsulfonyl)-4-piperidinyl]-1H-indole-7-carboxamide trifluoroacetate] | ≤ 10 | ≤ 1.5
CCS(=O)(=O)N1CCC(c2c[nH]c3c(C(N)=O)cc(-c4coc(CN5CCCC5)c4)cc23)CC1 [Example 247, 3-[1-(ethylsulfonyl)-4-piperidinyl]-5-[5-(1-pyrrolidinylmethyl)-3-furanyl]-1H-indole-7-carboxamide trifluoroacetate] | ≤ 10 | ≤ 1.5
CCN(CC)Cc1cc(-c2cc(C(N)=O)c3[nH]cc(C4CCN(S(=O)(=O)CC)CC4)c3c2)co1 [Example 248, 5-{5-[(diethylamino)methyl]-3-furanyl}-3-[1-(ethylsulfonyl)-4-piperidinyl]-1H-indole-7-carboxamide trifluoroacetate] | ≤ 10 | ≤ 1.5
CCS(=O)(=O)N1CCC(c2c[nH]c3c(C(N)=O)cc(-c4ncc(CN5CCCC5)s4)cc23)CC1 [Example 249, 3-[1-(ethylsulfonyl)-4-piperidinyl]-5-[5-(1-pyrrolidinylmethyl)-1,3-thiazol-2-yl]-1H-indole-7-carboxamide trifluoroacetate] | ≤ 10 | > 1
CCS(=O)(=O)N1CCC(c2c[nH]c3c(C(N)=O)cc(-c4csc(C(C(C)C)N5CCCC5)c4)cc23)CC1 (stereo not shown) [Example 250, 3-[1-(ethylsulfonyl)-4-piperidinyl]-5-{5-[2-methyl-1-(1-pyrrolidinyl)propyl]-3-thienyl}-1H-indole-7-carboxamide trifluoroacetate] | ≤ 10 | ≤ 1.5
CCS(=O)(=O)N1CCC(c2c[nH]c3c(C(N)=O)cc(-c4nc(CN5CCCC5)cs4)cc23)CC1 [Example 251, 3-[1-(ethylsulfonyl)-4-piperidinyl]-5-[4-(1-pyrrolidinylmethyl)-1,3-thiazol-2-yl]-1H-indole-7-carboxamide trifluoroacetate] | ≤ 10 | ≤ 1.5
CCS(=O)(=O)N1CCC(c2c[nH]c3c(C(N)=O)cc(-c4cnn(CCN5CCCC5)c4)cc23)CC1 [Example 253, 3-[1-(ethylsulfonyl)-4-piperidinyl]-5-{1-[2-(1-pyrrolidinyl)ethyl]-1H-pyrazol-4-yl}-1H-indole-7-carboxamide trifluoroacetate] | ≤ 10 | > 1
CCS(=O)(=O)N1CCC(c2c[nH]c3c(C(N)=O)cc(-c4cnn(CCN5CCOCC5)c4)cc23)CC1 [Example 254, 3-[1-(ethylsulfonyl)-4-piperidinyl]-5-{1-[2-(4-morpholinyl)ethyl]-1H-pyrazol-4-yl}-1H-indole-7-carboxamide trifluoroacetate] | ≤ 10 | > 1
CCS(=O)(=O)N1CCC(c2c[nH]c3c(C(N)=O)cc(-c4cnn(CCNCCO)c4)cc23)CC1 [Example 255, 3-[1-(ethylsulfonyl)-4-piperidinyl]-5-(1-{2-[(2-hydroxyethyl)amino]ethyl}-1H-pyrazol-4-yl)-1H-indole-7-carboxamide trifluoroacetate] | ≤ 10 | > 1
CCCCNCCn1cc(-c2cc(C(N)=O)c3[nH]cc(C4CCN(S(=O)(=O)CC)CC4)c3c2)cn1 [Example 256, 5-{1-[2-(butylamino)ethyl]-1H-pyrazol-4-yl}-3-[1-(ethylsulfonyl)-4-piperidinyl]-1H-indole-7-carboxamide trifluoroacetate] | ≤ 10 | > 1
CCS(=O)(=O)N1CCC(c2c[nH]c3c(C(N)=O)cc(-c4cnn(CCNC5CCC5)c4)cc23)CC1 [Example 257, 5-{1-[2-(cyclobutylamino)ethyl]-1H-pyrazol-4-yl}-3-[1-(ethylsulfonyl)-4-piperidinyl]-1H-indole-7-carboxamide trifluoroacetate] | ≤ 10 | > 1
CCN(CC)CCNCCn1cc(-c2cc(C(N)=O)c3[nH]cc(C4CCN(S(=O)(=O)CC)CC4)c3c2)cn1 [Example 258, 5-[1-(2-{[2-(diethylamino)ethyl]amino}ethyl)-1H-pyrazol-4-yl]-3-[1-(ethylsulfonyl)-4-piperidinyl]-1H-indole-7-carboxamide trifluoroacetate] | ≤ 10 | > 1
CCS(=O)(=O)N1CCC(c2c[nH]c3c(C(N)=O)cc(-c4cnn(CCNC(C)C)c4)cc23)CC1 [Example 259, 3-[1-(ethylsulfonyl)-4-piperidinyl]-5-(1-{2-[(1-methylethyl)amino]ethyl}-1H-pyrazol-4-yl)-1H-indole-7-carboxamide trifluoroacetate] | ≤ 10 | > 1
CCS(=O)(=O)N1CCC(c2c[nH]c3c(C(N)=O)cc(-c4cnn(CCNCC(C)C)c4)cc23)CC1 [Example 260, 3-[1-(ethylsulfonyl)-4-piperidinyl]-5-(1-{2-[(2-methylpropyl)amino]ethyl}-1H-pyrazol-4-yl)-1H-indole-7-carboxamide trifluoroacetate] | ≤ 10 | > 1
CCS(=O)(=O)N1CCC(c2c[nH]c3c(C(N)=O)cc(-c4ccc(OC)c(CN5CCCC5)c4)cc23)CC1 [Example 262, 3-[1-(ethylsulfonyl)-4-piperidinyl]-5-[4-(methyloxy)-3-(1-pyrrolidinylmethyl)phenyl]-1H-indole-7-carboxamide trifluoroacetate] | ≤ 10 | > 1
CCS(=O)(=O)N1CCC(c2c[nH]c3c(C(N)=O)cc(-c4ccc(F)c(CNC)c4)cc23)CC1 [Example 269, 3-[1-(ethylsulfonyl)-4-piperidinyl]-5-{4-fluoro-3-[(methylamino)methyl]phenyl}-1H-indole-7-carboxamide trifluoroacetate] | ≤ 10 | ≤ 1.5
CCS(=O)(=O)N1CCC(c2c[nH]c3c(C(N)=O)cc(-c4cc(CNC)cc(CNC)c4)cc23)CC1 [Example 270, 5-{3,5-bis[(methylamino)methyl]phenyl}-3-[1-(ethylsulfonyl)-4-piperidinyl]-1H-indole-7-carboxamide trifluoroacetate] | ≤ 10 | > 1
CCNCc1cc(-c2cc(C(N)=O)c3[nH]cc(C4CCN(S(=O)(=O)CC)CC4)c3c2)ccc1F [Example 271, 5-{3-[(ethylamino)methyl]-4-fluorophenyl}-3-[1-(ethylsulfonyl)-4-piperidinyl]-1H-indole-7-carboxamide trifluoroacetate] | ≤ 10 | ≤ 1.5
CCS(=O)(=O)N1CCC(c2c[nH]c3c(C(N)=O)cc(-c4ccc(F)c(CNC(CO)CO)c4)cc23)CC1 [Example 272, 3-[1-(ethylsulfonyl)-4-piperidinyl]-5-[4-fluoro-3-({[2-hydroxy-1-(hydroxymethyl)ethyl]amino}methyl)phenyl]-1H-indole-7-carboxamide trifluoroacetate (salt)] | ≤ 10 | > 1
CCS(=O)(=O)N1CCC(c2c[nH]c3c(C(N)=O)cc(-c4ccc(F)c(CN[C@@H](C)CO)c4)cc23)CC1 [Example 273, 3-[1-(ethylsulfonyl)-4-piperidinyl]-5-[4-fluoro-3-({[(1S)-2-hydroxy-1-methylethyl]amino}methyl)phenyl]-1H-indole-7-carboxamide trifluoroacetate (salt)] | ≤ 10 | ≤ 1.5
CCS(=O)(=O)N1CCC(c2c[nH]c3c(C(N)=O)cc(-c4ccc(F)c(CNC5CC5)c4)cc23)CC1 [Example 274, 5-{3-[(cyclopropylamino)methyl]-4-fluorophenyl}-3-[1-(ethylsulfonyl)-4-piperidinyl]-1H-indole-7-carboxamide trifluoroacetate] | ≤ 10 | ≤ 1.5
CCS(=O)(=O)N1CCC(c2c[nH]c3c(C(N)=O)cc(-c4ccc(F)c(CNC5CCC5)c4)cc23)CC1 [Example 275, 5-{3-[(cyclobutylamino)methyl]-4-fluorophenyl}-3-[1-(ethylsulfonyl)-4-piperidinyl]-1H-indole-7-carboxamide trifluoroacetate] | ≤ 10 | ≤ 1.5
CCS(=O)(=O)N1CCC(c2c[nH]c3c(C(N)=O)cc(-c4cccc(CN5CCCC5)c4)cc23)CC1 [Example 276, 3-[1-(ethylsulfonyl)-4-piperidinyl]-5-[3-(1-pyrrolidinylmethyl)phenyl]-1H-indole-7-carboxamide trifluoroacetate] | ≤ 10 | ≤ 1.5
